Like-named read-outs stand apart in the source and are kept apart here.
Tests used:
Mcl-1 protein = Mcl-1 protein (UniProtKB primary accession number: Q07820) (Homo sapiens, UniProt Q07820); assay: Inhibition of Mcl-1 by fluorescence polarisation, Method 1; type: binding; settings: read-out: IC50 (M) Mcl-1 FP
Summary of the method: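 FP readout of relative binding potency. Mcl-1 5 nM final, fluorescein-labelled ligand 1 nM final; buffer 10 mM HEPES, 150 mM NaCl, 0.05% Tween 20, pH 7.4; 11-pt dilution series, 5% DMSO final.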

[1] = test system: H929 multiple myeloma tumour line; assay: In vitro cytotoxicity, Microculture Tetrazolium Assay; type: cell-based; settings: H929 cells, 48 hours exposure, read-out: IC50 (μM) MTT H929
Experimental: The cytotoxicity studies were carried out on the H929 multiple myeloma tumour line.
The cells are distributed onto microplates and exposed to the test compounds for 48 hours.

[2] = test system: AMO-1 multiple myeloma cells; assay: Quantification of the cleaved form of PARP in vivo (MSD ELISA, tumour lysates); parameters: species or system mice (SCID strain); settings: activation factor: cleaved PARP in treated mice / control mice, AMO-1 xenograft in SCID mice, intraveinous or oral routes
Experimental: The ability of the compounds of the invention to induce apoptosis, by measuring cleaved PARP levels, is evaluated in a xenograft model of AMO-1 multiple myeloma cells. 1.10^7 AMO-1 cells are grafted sub-cutaneously into immunosuppressed mice (SCID strain). 12 to 14 days after the graft, the animals are treated by intraveinous or oral routes with the various compounds. After treatment, the tumour masses are recovered and lysed, and the cleaved form of PARP is quantified in the tumour lysates.
The quantification is carried out using the “Meso Scale Discovery (MSD) ELISA platform” test, which specifically assays the cleaved form of PARP. It is expressed in the form of an activation factor corresponding to the ratio between the quantity of cleaved PARP in the treated mice divided by the quantity of cleaved PARP in the control mice.

[3] = fluorescence polarisation, Method 1, or Method 2
[4] = Homo sapiens, NCI-H929, 48 h, MTT
[5] = fluorescence polarisation test, Method 1, or Method 2 where the value is underlined (underlining not visible)
[6] = Homo sapiens, NCI-H929, 48 h, cell viability
[7] = fluorescence polarisation test, Method 2 values are underlined in the patent (underlining not visible here)

Sequence of Mcl-1 protein (Q07820 whole entry): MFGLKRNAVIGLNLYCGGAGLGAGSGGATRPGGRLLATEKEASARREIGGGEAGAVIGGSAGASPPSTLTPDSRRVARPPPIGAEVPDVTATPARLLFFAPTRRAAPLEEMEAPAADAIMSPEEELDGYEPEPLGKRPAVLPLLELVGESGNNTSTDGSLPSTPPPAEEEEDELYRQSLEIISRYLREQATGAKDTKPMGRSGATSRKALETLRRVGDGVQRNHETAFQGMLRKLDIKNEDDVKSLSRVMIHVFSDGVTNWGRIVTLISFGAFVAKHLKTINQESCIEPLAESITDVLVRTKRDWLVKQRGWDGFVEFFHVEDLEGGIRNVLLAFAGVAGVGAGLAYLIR

IC50 (Mcl-1 protein; [3]) [M]	IC50 (Mcl-1 protein; [5]) [M]	IC50 (Mcl-1 protein; [7]) [M]	SMILES	IC50 [1, 4] [µM]	PARP fold [2] [fold]	IC50 ([1]; MTT) [µM]	IC50 [1, 6] [µM]
4.3e-09			CC#Cc1sc2ncnc(OC(Cc3ccccc3OCc3ccnc(N4CCOCC4)n3)C(=O)O)c2c1-c1ccc(OCCN2CCN(C)CC2)c(Cl)c1C [Example 485, (2R)-2-{[(5Sa)-5-{3-chloro-2-methyl-4-[2-(4-methylpiperazin-1-yl)ethoxy]phenyl}-6-(prop-1-yn-1-yl)thieno[2,3-d]pyrimidin-4-yl]oxy}-3-(2-{[2-(morpholin-4-yl)pyrimidin-4-yl]methoxy}phenyl)propanoic acid]	0.012	110.8		
9.48e-10			CCc1c(-c2c(-c3ccc(F)cc3)sc3ncnc(O[C@H](Cc4ccccc4OCc4ccnc(-c5ccccc5OC)n4)C(=O)O)c23)ccc(OCCN2CCN(C)CC2)c1Cl [Example 741, (2R)-2-{[(5Sa)-5-{3-chloro-2-ethyl-4-[2-(4-methylpiperazin-1-yl)ethoxy]phenyl}-6-(4-fluorophenyl)thieno[2,3-d]pyrimidin-4-yl]oxy}-3-(2-{[2-(2-methoxyphenyl)pyrimidin-4-yl]methoxy}phenyl)propanoic acid]		244	0.002	
	6.51e-07		COc1ccccc1-c1nccc(COc2ccccc2CC(Oc2ncnc3sc(-c4ccc(F)cc4)c(-c4ccc(OCCN5CCN(C)CC5)c(Cl)c4C)c23)C(=O)OCC(=O)N(C)C)n1 [Example 812, 2-(dimethylamino)-2-oxoethyl (2R)-2-{[(5Sa)-5-{3-chloro-2-methyl-4-[2-(4-methylpiperazin-1-yl)ethoxy]phenyl}-6-(4-fluorophenyl)thieno[2,3-d]pyrimidin-4-yl]oxy}-3-(2-{[2-(2-methoxyphenyl)pyrimidin-4-yl]methoxy}phenyl)propanoate]		136		0.103
1.24e-09			COc1ccc(-c2nccc(COc3ccccc3CC(Oc3ncnc4sc(-c5ccc(F)cc5)c(-c5ccc(OCCN6CCN(C)CC6)c(Cl)c5C)c34)C(=O)O)n2)c(C(F)(F)F)c1 [Example 729, (2R)-2-{[(5Sa)-5-{3-chloro-2-methyl-4-[2-(4-methylpiperazin-1-yl)ethoxy]phenyl}-6-(4-fluorophenyl)thieno[2,3-d]pyrimidin-4-yl]oxy}-3-[2-({2-[4-methoxy-2-(trifluoromethyl)phenyl]pyrimidin-4-yl}methoxy)phenyl]propanoic acid]	0.009	221		
9.48e-10			COc1ccccc1-c1nccc(COc2ccccc2CC(Oc2ncnc3sc(-c4ccc(F)cc4)c(-c4ccc(OCCN5CCN(C)CC5)c(Cl)c4Cl)c23)C(=O)O)n1 [Example 743, (2R)-2-{[(5Sa)-5-{2,3-dichloro-4-[2-(4-methylpiperazin-1-yl)ethoxy]phenyl}-6-(4-fluorophenyl)thieno[2,3-d]pyrimidin-4-yl]oxy}-3-(2-{[2-(2-methoxyphenyl)pyrimidin-4-yl]methoxy}phenyl)propanoic acid]	0.005	147.3		
		2.9e-09	CCCc1nccc(COc2ccccc2CC(Oc2ncnc3sc(-c4ccc(F)cc4)c(-c4ccc(OCCN5CCN(C)CC5)c(Cl)c4C)c23)C(=O)O)n1 [Example 41, (2R)-2-{[(5Sa)-5-{3-chloro-2-methyl-4-[2-(4-methylpiperazin-1-yl)ethoxy]phenyl}-6-(4-fluorophenyl)thieno[2,3-d]pyrimidin-4-yl]oxy}-3-{2-[(2-propylpyrimidin-4-yl)methoxy]phenyl}propanoic acid]	0.007	288.1		
9.48e-10			Cc1cc(-c2nccc(COc3ccccc3CC(Oc3ncnc4sc(-c5ccc(F)cc5)c(-c5ccc(OCCN6CCN(C)CC6)c(Cl)c5C)c34)C(=O)O)n2)c(C)cn1 [Example 731, (2R)-2-{[(5Sa)-5-{3-chloro-2-methyl-4-[2-(4-methylpiperazin-1-yl)ethoxy]phenyl}-6-(4-fluorophenyl)thieno[2,3-d]pyrimidin-4-yl]oxy}-3-(2-{[2-(2,5-dimethylpyridin-4-yl)pyrimidin-4-yl]methoxy}phenyl)propanoic acid]	0.005	175.5		
		7.8e-09	CCOCc1nccc(COc2ccccc2C[C@@H](Oc2ncnc3sc(-c4ccc(F)cc4)c(-c4ccc(OCCN5CCN(C)CC5)c(Cl)c4C)c23)C(=O)O)n1 [Example 47, (2R)-2-{[(5Sa)-5-{3-chloro-2-methyl-4-[2-(4-methylpiperazin-1-yl)ethoxy]phenyl}-6-(4-fluorophenyl)thieno[2,3-d]pyrimidin-4-yl]oxy}-3-(2-{[2-(ethoxymethyl)pyrimidin-4-yl]methoxy}phenyl)propanoic acid]		101.1	0.005	
4.71e-07			COC(=O)C(Cc1ccccc1OCc1ccnc(-c2ccccc2OC)n1)Oc1ncnc2sc(-c3ccc(F)cc3)c(-c3ccc(OCCN4CCN(C)CC4)c(Cl)c3C)c12 [Example 787, methyl (2R)-2-{[(5Sa)-5-{3-chloro-2-methyl-4-[2-(4-methylpiperazin-1-yl)ethoxy]phenyl}-6-(4-fluorophenyl)thieno[2,3-d]pyrimidin-4-yl]oxy}-3-(2-{[2-(2-methoxyphenyl)pyrimidin-4-yl]methoxy}phenyl)propanoate]	0.245	131.5		
		5.8e-09	COCCOc1ccccc1CC(Oc1ncnc2sc(-c3ccco3)c(-c3ccc(OCCN4CCN(C)CC4)c(Cl)c3C)c12)C(=O)O [Example 290, (2R)-2-{[(5Sa)-5-{3-chloro-2-methyl-4-[2-(4-methylpiperazin-1-yl)ethoxy]phenyl}-6-(furan-2-yl)thieno[2,3-d]pyrimidin-4-yl]oxy}-3-[2-(2-methoxyethoxy)phenyl]propanoic acid]	0.097	121		
		3.9e-09	Cc1c(-c2c(-c3ccc(F)cc3)sc3ncnc(OC(Cc4ccccc4OCc4ccnc(OCCC(F)(F)F)n4)C(=O)O)c23)ccc(OCCN2CCN(C)CC2)c1Cl [Example 62, (2R)-2-{[(5Sa)-5-{3-chloro-2-methyl-4-[2-(4-methylpiperazin-1-yl)ethoxy]phenyl}-6-(4-fluorophenyl)thieno[2,3-d]pyrimidin-4-yl]oxy}-3-(2-{[2-(3,3,3-trifluoropropoxy)pyrimidin-4-yl]methoxy}phenyl)propanoic acid]	0.008	391.6		
1.18e-09			Cc1c(-c2c(-c3ccc(F)cc3)sc3ncnc(OC(Cc4ccccc4OCc4ccnc(-c5ccccc5OC(C)C)n4)C(=O)O)c23)ccc(OCCN2CCN(C)CC2)c1Cl [Example 723, (2R)-2-{[(5Sa)-5-{3-chloro-2-methyl-4-[2-(4-methylpiperazin-1-yl)ethoxy]phenyl}-6-(4-fluorophenyl)thieno[2,3-d]pyrimidin-4-yl]oxy}-3-[2-({2-[2-(propan-2-yloxy)phenyl]pyrimidin-4-yl}methoxy)phenyl]propanoic acid]	0.004	191.2		
		2.1e-09	Cc1c(-c2c(-c3ccc(F)cc3)sc3ncnc(OC(Cc4ccccc4OCc4ccnc(-c5ccccc5F)n4)C(=O)O)c23)ccc(OCCN2CCN(C)CC2)c1Cl [Example 114, (2R)-2-{[(5Sa)-5-{3-chloro-2-methyl-4-[2-(4-methylpiperazin-1-yl)ethoxy]phenyl}-6-(4-fluorophenyl)thieno[2,3-d]pyrimidin-4-yl]oxy}-3-(2-{[2-(2-fluorophenyl)pyrimidin-4-yl]methoxy}phenyl)propanoic acid]	0.005	158.2		
	4.2e-07		COc1ccccc1-c1nccc(COc2ccccc2CC(Oc2ncnc3sc(-c4ccc(F)cc4)c(-c4ccc(OCCN5CCN(C)CC5)c(Cl)c4C)c23)C(=O)OCOC(=O)C(C)(C)C)n1 [Example 810, {[(2R)-2-{[(5Sa)-5-{3-chloro-2-methyl-4-[2-(4-methylpiperazin-1-yl)ethoxy]phenyl}-6-(4-fluorophenyl)thieno[2,3-d]pyrimidin-4-yl]oxy}-3-(2-{[2-(2-methoxyphenyl)pyrimidin-4-yl]methoxy}phenyl)propanoyl]oxy}methyl 2,2-dimethylpropanoate]		122.4		0.001
1.33e-09			Cc1c(-c2c(-c3ccc(F)cc3)sc3ncnc(OC(Cc4ccccc4OCc4ccnn4C(C)(C)C)C(=O)O)c23)ccc(OCCN(C)C)c1Cl [Example 750, (2R)-3-{2-[(1-tert-butyl-1H-pyrazol-5-yl)methoxy]phenyl}-2-{[(5Sa)-5-{3-chloro-4-[2-(dimethylamino)ethoxy]-2-methylphenyl}-6-(4-fluorophenyl)thieno[2,3-d]pyrimidin-4-yl]oxy}propanoic acid]	0.035	181.6		

Source: patent publication US9670227B2, “Thienopyrimidine derivatives, a process for their preparation and pharmaceutical compositions containing them” (LES LABORATOIRES SERVIER, priority 2013, dated 2017)
